One test relates to dG1. In words: Thermal stability of PBX1 dG1 with G4-specific ligands. Format: binding.
Another test relates to rG1. In words: Thermal stability of PBX1 rG1 with G4-specific ligands. Format: binding.
For the next test, the system named is PBX1 transcript. In words: BG4 RNA immunoprecipitation (RIP) followed by qRT-PCR in A375 cells. Format: cell-based, human. Here is the method: FIGS. 2A-2G are features formed by dG1 and rG1 in vitro and in cells. In (FIG. 2A), Left: CD spectra of WT and Mut dG1, and Right: CD spectra of WT and Mut rG1. CD is circular dichroism. In (FIG. 2B), Left: gel mobility assay of WT and Mut dG1, and Right: gel mobility assay of WT and Mut rG1. In (FIG. 2C), under specified conditions, fluorescence-on assay of NMM in absence of presence of dG1 or rG1, and their G/A mutant. In (FIG. 2D), the occupancy of BG4 in the PBX1 promoter region is measured in A375 cells by BG4 chromatin immunoprecipitation (ChIP), followed by qRT-PCR. In (FIG. 2E), RNA immunoprecipitation (RIP) detection is performed to show the association between BG4 and the PBX1 transcript in A375 cells, followed by qRT-PCR. In (FIG. 2F), the occupancy of BG4 in the PBX1 promoter region is measured, by the BG4 chip, in A375 cells treated with or without PDS and TMPyP4, followed by qRT-PCR. […] SEM represents the standard error of mean. *P< 0.05, **P< 0.01***P< 0.001.
In this embodiment, several methods are further employed to verify the formation of dG1 and rG1. First, circular dichroism (CD) is used to examine the molar ellipticity of dG1 and rG1 sequences (33 nt) and mutants thereof, and the mutants are designed to eliminate G4 formation. […] N-methyl mesoporphyrin IX (NMN) is the well-known fluorescent G4-specific ligand that can be used for studies of G4 formation in vitro. Both dG1 and rG1 are found to enhance the fluorescence of N N (FIG. 2C). In addition, in this embodiment, chromatin immunoprecipitation (ChIP) and RNA immunoprecipitation (RIP) detection are performed in A375 cells using the well-known G4-specific antibody BG4. […] In summary, dG1 and rG1 can fold stable G4 structures in vitro and in cells. […] Therefore, the ability of these G4-specific ligands to interact with PBX1 G4s is investigated next.
Control:mG*mT*mC*mC*mA*mC*mA*mA*mA*mC*mA*mC*mA*mA*mC*mT*mC* mC*mT*mG*). […] This example also establishes short-term cultures of patient-derived melanoma xenograft (PDX)-derived tumor cells (PDCs) (FIG. 5D). […]
In general terms: In qPCR the cycle at which signal appears reflects the starting amount.

Test [1] deals with B16-F10 cells. In words: Cell proliferation assay (CCK-8), B16-F10. To be noted: dose-dependent manner. Format: cell-based, mouse. The protocol:
Cell proliferation assay: cell viability is determined by the cell counting kit-8 (CCK-8) according to the manufacturer's instructions (Abcam, UK). Cells (2000 cells per well) are incubated in the 96-well plate in triplicate and then added to each well at various time points at the final concentration of 10%, and incubation is continued at 37° C. After 60 minutes, the absorbance of the sample is measured at the wavelength of 450 nm. Data is analyzed using GraphPad Prism software.

In test [2] the test system is A375 cells. In words: Colony forming assay, A375. Format: cell-based, human. The protocol: (§1) Colony forming assay: for the colony forming assay, A375 and B16-F10 cells are seeded on 6-well plates with the density of 500-1000 cells. After two weeks, staining is performed by using 1% crystal violet at room temperature, rinsing is performed with PBS and tap water, and the number of colonies is counted.

Test [3] relates to B16-F10 cells. In words: Colony forming assay, B16-F10. Format: cell-based, mouse. Here is the method:
as §1

In test [4] the test system is A375 cells. In words: Cell scratch assay (migration), A375. Format: cell-based, human. To be noted: PDS (2 μM), TMPyP4 (5 μM), 24 h. The protocol: (§2) Cell scratch assay: the cells are seeded in 12-well plate and grown for 24 hours to 80% confluency. The bare region is created by the tip across the diameter of the dish. After being treated with PDS (2 μM) and TMPyP4 (5 μM) for 24 h, the cells are washed with PBS and photographed under the microscope (Leica, Germany) to evaluate cell migration. Six micrographs are taken for each person.

Test [5] relates to B16-F10 cells. In words: Cell scratch assay (migration), B16-F10. Format: cell-based, mouse. To be noted: PDS (2 μM), TMPyP4 (5 μM), 24 h. The protocol:
as §2

Test [6] relates to A375 cells. In words: In vitro cell invasion experiment (Transwell), A375. Format: cell-based, human. To be noted: Transwell with Matrigel, 24 hours. The protocol: (§3) In vitro cell invasion experiment: in the Transwell invasion experiment, Matrigel is used as an invasive supraluminal membrane barrier (Corning, USA). The lower transwell chamber is filled with 2.5% serum containing DMEM medium. The cells are suspended at an upper chamber. After incubation for 24 hours, the filter is removed, and cells on the membrane are fixed by using methanol. Cells stained with 0.5% crystal violet infiltrate the surrounding matrix. The dye is washed with water and the cells are examined under the microscope (Leica, Germany). Six micrographs are taken for each person.

Test [7] deals with B16-F10 cells. In words: In vitro cell invasion experiment (Transwell), B16-F10. Format: cell-based, mouse. To be noted: Transwell with Matrigel, 24 hours. Here is the method:
as §3

“Also recorded” adds a separate entry of the source.

With `NCCOc1cc(C(=O)Nc2cc(OCCN)c3ccccc3n2)nc(C(=O)Nc2cc(OCCN)c3ccccc3n2)c1` [PDS, Pyridostatin], in the test with dG1, the “thermal stability of dG1” value is reported as “remarkably enhance”. The “thermal stability of rG1” value in the test with rG1 is given as “remarkably enhance”. In the test on PBX1 transcript, the “PBX1 transcript pulled down by BG4” value is listed as “enhance”. Moreover, the “cell viability (activity) measured by CCK8” value in the test with B16-F10 cells [1] was “reduce; also recorded: remarkably reduces”. Also, the colony formation result with A375 cells [2] and in the test with B16-F10 cells [3] was “inhibits” throughout. Moreover, the migration entry with A375 cells [4] and in the test on B16-F10 cells [5] was “inhibit” in each case. Further, the invasion result in the test on A375 cells [6] and with B16-F10 cells [7] was “inhibit” in each case.

As for `C[n+]1ccc(-c2c3nc(c(-c4cc[n+](C)cc4)c4ccc([nH]4)c(-c4cc[n+](C)cc4)c4ccc([nH]4)c(-c4cc[n+](C)cc4)c4nc2C=C4)C=C3)cc1` [TMPyP4], the “thermal stability of dG1” value in the test with dG1 was “remarkably enhance”. Also, the “thermal stability of rG1” value with rG1 is on record as “remarkably enhance”. The “PBX1 transcript pulled down by BG4” value with PBX1 transcript is on record as “enhance”. Besides, the “cell viability (activity) measured by CCK8” value with B16-F10 cells [1] was “reduce; also recorded: remarkably reduces”. Moreover, the colony formation result with A375 cells [2] and in the test with B16-F10 cells [3] was “inhibits” in each case. Further, the migration result with A375 cells [4] and in the test with B16-F10 cells [5] was “inhibit” throughout. For the same molecule, the invasion entry in the test on A375 cells [6] and with B16-F10 cells [7] was “inhibit” in each case.

The record behind these values is US20240076667A1, “APPLICATION OF ANTISENSE OLIGONUCLEOTIDE TARGETING PBX1 PROMOTER REGION G-QUADRUPLEX IN PREPARATION OF MEDICINE FOR TREATING MELANOMA” (JILIN UNIVERSITY, priority 2022, published 2024).
